Reference: patent US20040229960A1, “Compositions and methods of administering tubulin binding agents for the treatment of ocular diseases” (priority 2001, published 2004)

Tests used:
[1] = Biodistribution of 14C-CA4P following subconjunctival injection; type: in vivo, New Zealand rabbits
Protocol: (§1) ^14C-CA4P (OXiGENE Inc., Watertown, Mass.) was resuspended in 100 ul volume of saline solution and injected with a 30 G needle into the right eyes of anesthesized male New Zealand rabbits (4 months old, 1.8-2.5 kg, n=3 per sample). Three different concentrations of ^14C-CA4P were tested (1, 10, 100 mg/ml) corresponding to doses of 1, 5, and 5 uCi of applied radioactivity respectively. A blank control group was also included. Rabbits were anaesthetized at 1, 6, 24, and 48 hours for blood sampling. After blood collection, the animals were euthanized by Phenobarbital injection and the treated right eyes were removed from all test animals. Ocular tissue samples were dissected from the cornea, aqueous humor, vitreous humor, choroid, or retina, placed in 20-mi glass scintillation vials, vortexed, and incubated for 24 hrs with 500 ul digesting fluid. Plasma was separated from whole blood by centrifugation (1,800 g for 10 minutes). Both ocular tissue samples and plasma were incubated at room temperature with 16 ml of Hionic Fluor™ scintillation fluid for a period of 24 hours prior to radioactivity counting. Each sample was counted for 5 minutes in a Betamatic V counter (Bio-Tek Kontron Instruments, St Quentin en Yvelines, France). The conversion of counts per minute (“cpm”) into disintegrations per minute (“dpm”) was performed automatically by the beta-counter, using calibration curves obtained from ^14C-standards and quenching curves from the respective blank matrices spiked with ^14C-standards. The concentration of drug was determined according to nanogram equivalents of CA4P (ng-Eq/g of tissue) which was calculated from the measured dpm value, the weight of the tissue specimen, and the specific activity of the drug (0.37 mCi/mg), followed by subtraction of the corresponding background value from control eye tissue. A tissue concentration of 1 uM CA4P is equal to […] tissue.
Subconjuctival injections were administered at doses of 0.1, 1, 10, and 100 mg/ml. ^14C-CA4P solutions were formulated with 0.24% 10N KOH and 0.01% Benzalkonium chloride and injected in a volume of 100 ul. Animals were treated at an applied dose of 5 uCi with a single subconjunctival injection in right eyes. After delivery, the eye was gently held closed for 2-5 seconds.

[2] = Biodistribution of 14C-CA4P following sub-Tenon's injection; type: in vivo, New Zealand rabbits
Protocol: as §1

[3] = system: oxygen-induced retinal neovascularization; assay: Murine model of oxygen-induced retinal neovascularization (ROP); type: in vivo; details: neonatal mouse treated upon removal from hyperoxic conditions
From the text: The inner retina of the mammalian eye receives oxygen from the superficial retinal capillary bed. This capillary bed is located beneath the inner limiting membrane which serves as the interface between the inner retina and the outer avascular vitreous. The pathology of retinal neovascularization or retinopathy arises from ischemia-induced growth of neovasculature beyond the retinal inner limiting membrane and into the vitreous, causing severe loss of vision and frequently leading to retinal detachment. […] In this model neonatal mice are exposed to sustained hyperoxic conditions (75% oxygen for 7 days) that inhibit the development of the superficial retinal capillary bed. When a mouse pup is removed from the pure oxygen environment and placed in the relative hypoxia of environmental oxygen, the underdeveloped superficial retinal capillary bed is unable to deliver sufficient quantities of oxygen to the retina. […]
It is expected that the treatment of a neonatal mouse with CA4P immediately upon its removal from hyperoxic conditions would be an effective treatment method for ROP. Retinal neovascularization can be quantified by counting the number chemically stained nuclei of penetrating endothelial cells in retinal tissue section of treated and untreated eyes according to existing methods (Majka et al., Invest. Ophthalmol. Vis. Sci. 2001, 42: 210-15).

pathological myopia = assay: Human patient with pathological myopia, phase I/II study; type: in vivo
From the text: A person was originally examined on Day One after complaining of visual obstructions in their left eye. The patient had received ocular lens implants in both eyes approximately 2 years earlier to correct for myopia. The patient was diagnosed with pathological myopia (also known as proliferative myopathy and myopic macular degeneration) and received a total of four treatments of Photodynamic Therapy (PDT, Visudyne™) in the left eye over the course of the next 8 months. […] In June 2003, the patient was diagnosed with pathological myopia in the right eye as well.
About 3 months later, the patient was enrolled in an open-label, pilot (phase I/II), dose-escalation safety and tolerability study of CA4P. At that time, the patient's best corrected visual acuity was 20/50-3 in the left eye and 20/25-3 in the right eye, as determined by a Snellen back-lit visual acuity test. […] On Day One of the study, the patient began treatment with an intravenous infusion of CA4P (free acid), at a dose of 27 mg/m2, over a 10 minute period. […] The patient received second, third, and fourth infusions of CA4P on Days 8, 15, and 22 of the study, with a maintenance of visual acuity and no active leakage in either eye.

SMILES: COc1ccc(/C=C\c2cc(OC)c(OC)c(OC)c2)cc1OP(=O)([O-])[O-].[Na+].[Na+] [CA4P, combretastatin A4 disodium phosphate]
- Cmax ([1]; choroid, 0.1 mg/ml subconjunctival): 2300 nM
- Cmax ([1]; choroid, 1 mg/ml subconjunctival): 1900 nM
- Cmax ([1]; choroid, 10 mg/ml subconjunctival): 188000 nM
- Cmax ([1]; choroid, 100 mg/ml subconjunctival): 908000 nM
- Concentration of drug delivered ([1]; cornea, retina and choroid, 100, 10 and 1 mg/ml, subconjunctival): > 1000 nM
- Cmax ([1]; cornea, 0.1 mg/ml subconjunctival): 1500 nM
- Cmax ([1]; cornea, 1 mg/ml subconjunctival): 13000 nM
- Cmax ([1]; cornea, 10 mg/ml subconjunctival): 143000 nM
- Cmax ([1]; cornea, 100 mg/ml subconjunctival): 761000 nM
- Cmax ([1]; plasma, 0.1 mg/ml subconjunctival): 17 nM
- Cmax ([1]; plasma, 1 mg/ml subconjunctival): 25 nM
- Cmax ([1]; plasma, 10 mg/ml subconjunctival): 900 nM
- Cmax ([1]; plasma, 100 mg/ml subconjunctival): 8000 nM
- Cmax ([1]; retina, 0.1 mg/ml subconjunctival): 130 nM
- Cmax ([1]; retina, 1 mg/ml subconjunctival): 1700 nM
- Cmax ([1]; retina, 10 mg/ml subconjunctival): 39600 nM
- Cmax ([1]; retina, 100 mg/ml subconjunctival): 174000 nM
- Time of highest concentrations of drug in the eye ([1]; subconjunctival injection): within the first hour
- Cmax ([1]; vitreous, 0.1 mg/ml subconjunctival): 5 nM
- Cmax ([1]; vitreous, 1 mg/ml subconjunctival): 20 nM
- Cmax ([1]; vitreous, 10 mg/ml subconjunctival): 2100 nM
- Cmax ([1]; vitreous, 100 mg/ml subconjunctival): 15700 nM
- Cmax ([2]; aqueous humor, 1 mg/ml sub-Tenon's): 300 nM
- Cmax ([2]; aqueous humor, 10 mg/ml sub-Tenon's): 1800 nM
- Cmax ([2]; aqueous humor, 100 mg/ml sub-Tenon's): 5920 nM
- Cmax ([2]; choroid, 1 mg/ml sub-Tenon's): 1200 nM
- Cmax ([2]; choroid, 10 mg/ml sub-Tenon's): 6200 nM
- Cmax ([2]; choroid, 100 mg/ml sub-Tenon's): 861000 nM
- Cmax ([2]; plasma, 1 mg/ml sub-Tenon's): 70 nM
- Cmax ([2]; plasma, 10 mg/ml sub-Tenon's): 490 nM
- Cmax ([2]; plasma, 100 mg/ml sub-Tenon's): 9300 nM
- Concentration of drug delivered ([2]; retina and choroid, 100 and 10 mg/ml, sub-Tenon's): > 1000 nM
- Cmax ([2]; retina, 1 mg/ml sub-Tenon's): 850 nM
- Cmax ([2]; retina, 10 mg/ml sub-Tenon's): 7100 nM
- Cmax ([2]; retina, 100 mg/ml sub-Tenon's): 171000 nM
- Time of highest concentrations of drug in the eye ([2]; sub-Tenon's injection): within the first hour
- Cmax ([2]; vitreous, 1 mg/ml sub-Tenon's): 19 nM
- Cmax ([2]; vitreous, 10 mg/ml sub-Tenon's): 130 nM
- Cmax ([2]; vitreous, 100 mg/ml sub-Tenon's): 3900 nM
- Number of nuclei penetrating the inner limiting membrane [3]: significantly reduced
- Improvement of Snellen visual acuity, left eye (pathological myopia; 27 mg/m2 i.v. weekly): improved by five lines to 20/20 vision
- Leakage in fluorescein angiography of either eye (pathological myopia; Day 8 after 27 mg/m2 i.v. infusion, active leakage in both eyes at baseline): No active leakage was observed
